A word on the ED50: it is the dose that gives a 50% effect, or the effect in half of the subjects. Higher therefore signals a need for a large dose.

In one test the target is Nicotine receptor. The experiment in a line: [3H]-cytisine displacement in rat brain membrane preparation. The format is binding. The note with it: negative common logarithm of the concentration giving 50% displacement of specifically bound [3H]-cytisine; rat brain homogenate, 22° C., 60 min. The procedure:
The effect on nicotinergic receptors of the central nervous system is determined by a generally customary standard method for receptor binding studies (E. C. Hulme, Editor, Receptor-Ligand Interactions, Oxford University Press, 1992, pp 1-458). The binding was measured here by displacement of [^3 H]-cytisine by the active compounds in the rat brain membrane preparation.
Rats were sacrificed by decapitation and the entire brain was then removed immediately and processed. All following steps were carried out with cooling to 4° C. The brain was homogenized in sucrose solution (110 g of sucrose/l; 20 ml of solution per 1 g of brain mass) with the aid of a mixer. Coarse constituents were removed by centrifugation of the homogenate for 10 min at 1200 g and subsequent filtration through 5 layers of muslin. The suspension which remained (called homogenate in the following) was frozen and stored at -20° C. until use.
Buffer A for the test batch: 100 mM K2 HPO4 /KH2 PO4, pH 7.4, containing 1 g/ of bovine serum albumin.
For the determination of the displacement of [^3 H]-cytisine by the active compounds the following batch (1 ml total volume) was mixed together: 250 μl of thawed homogenate, 600 μl of buffer, 100 μl of active compound solution in buffer A (containing a concentration series in dilution steps with a factor of 10 between a maximum of 10^-2 M and a minimum of 10^-10 M of active compound, and 2 μl of methanol, from a concentrated stock solution of the active compounds), 50 μl of (^3 H)-cytisine solution in buffer A (containing 1.48 pmol of (^3 H)-cytisine, corresponding to 1.67 KBq, and 5 μl of ethanol, from a concentrated stock solution). In controls which contained no homogenate or no active compound, the missing volume was replaced by buffer A.
The batches were incubated at 22° C. in a shaking water bath for 60 min. To end incubation of the batches, 3 ml of ice-cold buffer A was added in each case and the whole solution was rapidly filtered through GF/C glass fibre filters. The filters were premoistened with a 1% strength solution of Prosil in buffer A. The filters were also washed twice with 3 ml of ice-cold buffer A each time. The filters were then removed and the radioactivity bound to the filters was determined in a liquid scintillation apparatus after addition of 10 ml of suitable scintillation cocktail.
All values were determined in duplicate and averaged. The concentration of active compound which leads to a 50% displacement of the specifically bound [^3 H]-cytisine was calculated from the concentration series by a logit transformation or by the 4-parameter logistic model (T. Chard; An Introduction to Radioimmunoassay and Related Techniques; Elsevier, Amsterdam, 1990; pp 613-171; statistical assessment by computer). The negative common logarithm of this concentration is called the pI50 in the following.

A further test concerns rats. The experiment in a line: rat forced swimming test. The format is in vivo. The note with it: po, 5 min, period of immobility over 5 minutes, administered between the two swimming tests. The text has this:
The activity of the substituted amines described in the treatment and prevention of affective disorders is confirmed with the aid of the "rat forced swimming test". This behavioural model was described for the first time by R. D. Porsolt et al. (Nature 266; 730, 1977) and today is a generally recognized in-vivo screening model for the discovery of new antidepressants. It is based on the observation that rats in a hopeless situation remain in an immobile position ("behavioural despair"). In a preliminary test, young adult rats (3-4 months old) are placed individually for 20 minutes in glass cylinders (height 40 cm, diameter 20 cm) which are filled with water to a height of 15 cm. 24 hours after this preliminary test, the animals are again transferred to the cylinders and the period of immobility is measured over a space of time of 5 minutes.
The substituted amines described are administered in the time interval between the two swimming tests. Controls receive the vehicle.

In turn, `NC(=N[N+](=O)[O-])N1CCN(Cc2ccc(Cl)nc2)C1` [Example 6] displayed a pI30 on Nicotine receptor of 4.8.

Consider `O=[N+]([O-])C=C1NCCN1c1ccc(Cl)nc1` [Example 16], for which, on Nicotine receptor, the pI30 is reported as 4.6.

In the case of `O=[N+]([O-])C=C1NCCN1Cc1ccc(Cl)c(F)c1` [Example 2], the pI30 on Nicotine receptor worked out at 5.3.

`CCCC(c1ccc(F)cc1)N1CNC(NCc2ccc(Cl)nc2)=C([N+](=O)[O-])C1` (stereo not shown) [Example 1] yielded a pI30 at Nicotine receptor of 6.6.

Take `N#CC=C1NCCN1Cc1ccc(Cl)nc1` [Example 11]: on Nicotine receptor, the pI30 was determined as 5.8.

`O=[N+]([O-])N=C1NCCN1Cc1cccnc1` [Example 12]: the pI30 at Nicotine receptor turned out to be 5.7. Besides, the median effective dose (ED50) in the test with rats was 2.5 mg/kg.

For `O=[N+]([O-])C=C1NCCN1Cc1cnc(Cl)s1` [Example 10], the pI30 at Nicotine receptor is listed as 6.2. In the test on rats, this compound had an ED50 of 1.5 mg/kg.

In the case of `O=[N+]([O-])C=C1NCCN1Cc1cccnc1` [Example 7], at Nicotine receptor, the pI30 stood at 5.9.

On Nicotine receptor, `CC(=NC#N)N(C)Cc1ccc(Cl)nc1` [Example 5] yielded a pI30 of 6.2.

`O=[N+]([O-])C=C1OCCN1Cc1ccc(Cl)nc1` [Example 14] gave a pI30 at Nicotine receptor of 6.4.

`CC(=O)NCCN1CC([N+](=O)[O-])=C2N(Cc3ccc(Cl)nc3)CCN2C1` [Example 3] displayed a pI30 at Nicotine receptor of 6.5. For the same compound, in the test on rats, the ED50 was found to be 4.1 mg/kg.

At Nicotine receptor, `CN1CN(C)C(=N[N+](=O)[O-])N(Cc2ccc(Cl)nc2)C1` [Example 15] returned a pI30 of 5.2.

`COc1cccc(CN2CCN(Cc3ccc(Cl)nc3)C2=N[N+](=O)[O-])c1` [Example 4] had a pI30 at Nicotine receptor of 5.1.

As to `N#CC=C1CCCN1Cc1ccc(Cl)nc1` [Example 13], the pI30 at Nicotine receptor is on record as 6.6.

`Cc1ccc(CN2CCNC2=C[N+](=O)[O-])cn1` [Example 9] registered a pI30 on Nicotine receptor of 6.4.

`O=[N+]([O-])C=C1NCCN1Cc1ccncc1` [Example 8] gave a pI30 at Nicotine receptor of 4.6.
